The source of these data is patent publication US9365619B2, “IgG-binding peptide and method for detecting and purifying IgG using same” (Otsuka Chemical Co., Ltd., priority 2011, dated 2016).

SMILES strings stand for the structures. Read-outs that look alike come from different tables or passages of the source. Bridge positions count the residues as written; N and C are the ends. Peptide text beside a SMILES is read from it.

In the experiment the target is human IgG. Nature of the experiment: Surface plasmon resonance (SPR) analysis of synthetic peptide binding to human IgG. The note with it: for affinity compared with the original peptide, in words: compared with GFc-C35-3/15. As for the experimental part:
In order to narrow down the amino acid region to be studied, a peptide in which one amino acid was deleted from each end of GFc-C35 (GFc-C35-2/16) and a peptide in which two amino acids were deleted from each end of CFc-C35 (GFc-C35-3/15) were synthesized. Among these peptides, based on the GFc-C35-3/15 synthetic peptide, the effect of the introduction of amino acid mutations on affinity was evaluated. That is, the contribution of each amino acid substitution to affinity was evaluated by synthesizing peptides substituted with frequently or occasionally observed amino acids obtained from the phage libraries and subjecting the resulting synthetic peptides to binding analysis.
Based on the synthetic peptide C35A, peptides substituted with amino acids observed at high frequency in the aforementioned phage libraries were synthesized by introducing amino acid mutations, and in a similar manner to the above, their binding to human IgG was analyzed by surface plasmon resonance (SPR) analysis to evaluate the contribution of each amino acid substitution to affinity.

[1] abbreviates: SPR, synthetic peptide binding to human IgG, read-out: Kd.

Turning to `CC(C)C[C@@H]1NC(=O)[C@H](CC(N)=O)NC(=O)CNC(=O)[C@H](CC(N)=O)NC(=O)[C@H](CO)NC(=O)[C@H](Cc2ccc(O)cc2)NC(=O)[C@H]([C@@H](C)O)NC(=O)[C@@H](NC(=O)[C@@H](N)CC(=O)O)CSSC[C@@H](C(=O)N[C@H](C(N)=O)[C@@H](C)O)NC(=O)[C@H](Cc2c[nH]c3ccccc23)NC(=O)[C@H](C(C)C)NC1=O` [GFc-C35-3/15 (T7S), DCTYSNGNLVWCT] (H-DCTYSNGNLVWCT-NH2; disulfide 2-12), under setting [1], the Kd turned out to be 26 µM. The same measure, in the same setting: the figure for `CC(C)C[C@@H]1NC(=O)[C@H](CC(N)=O)NC(=O)CNC(=O)[C@H](CC(N)=O)NC(=O)[C@H]([C@@H](C)O)NC(=O)[C@H](Cc2ccc(O)cc2)NC(=O)[C@H]([C@@H](C)O)NC(=O)[C@@H](NC(=O)[C@@H](N)CC(=O)O)CSSC[C@@H](C(=O)N[C@@H](CO)C(N)=O)NC(=O)[C@H](Cc2c[nH]c3ccccc23)NC(=O)[C@H](C(C)C)NC1=O` [GFc-C35-3/15 (T15S), DCTYTNGNLVWCS] (H-DCTYTNGNLVWCS-NH2; disulfide 2-12) is 34 µM; for `CC[C@H](C)[C@@H]1NC(=O)[C@H](CC(C)C)NC(=O)[C@H](CC(N)=O)NC(=O)CNC(=O)[C@H](CC(N)=O)NC(=O)[C@H]([C@@H](C)O)NC(=O)[C@H](Cc2ccc(O)cc2)NC(=O)[C@H]([C@@H](C)O)NC(=O)[C@@H](NC(=O)[C@@H](N)CC(=O)O)CSSC[C@@H](C(=O)N[C@H](C(N)=O)[C@@H](C)O)NC(=O)[C@H](Cc2c[nH]c3ccccc23)NC1=O` [GFc-C35-3/15 (V12I), DCTYTNGNLIWCT] (H-DCTYTNGNLIWCT-NH2; disulfide 2-12) it is 12 µM. `CC(C)C[C@@H]1NC(=O)[C@H](CC(N)=O)NC(=O)CNC(=O)[C@H](CC(N)=O)NC(=O)[C@H]([C@@H](C)O)NC(=O)[C@H](Cc2ccccc2)NC(=O)[C@H]([C@@H](C)O)NC(=O)[C@@H](NC(=O)[C@@H](N)CC(=O)O)CSSC[C@@H](C(=O)N[C@H](C(N)=O)[C@@H](C)O)NC(=O)[C@H](Cc2c[nH]c3ccccc23)NC(=O)[C@H](C(C)C)NC1=O` [GFc-C35-3/15 (Y6F), DCTFTNGNLVWCT] (H-DCTFTNGNLVWCT-NH2; disulfide 2-12): the “affinity compared with the original peptide, in words” value is “greatly reduced affinity”. For the same compound, the Kd under setting [1] stood at 2100 µM. For the compound `CC(C)C[C@@H]1NC(=O)[C@H](CC(N)=O)NC(=O)CNC(=O)[C@H](CC(N)=O)NC(=O)[C@H]([C@@H](C)O)NC(=O)[C@H](Cc2c[nH]c3ccccc23)NC(=O)[C@H]([C@@H](C)O)NC(=O)[C@@H](NC(=O)[C@@H](N)CC(=O)O)CSSC[C@@H](C(=O)N[C@H](C(N)=O)[C@@H](C)O)NC(=O)[C@H](Cc2c[nH]c3ccccc23)NC(=O)[C@H](C(C)C)NC1=O` [GFc-C35-3/15 (Y6W), DCTWTNGNLVWCT] (H-DCTWTNGNLVWCT-NH2; disulfide 2-12), the “affinity compared with the original peptide, in words” value is recorded as “increased affinity”. For the same compound, the Kd under setting [1] came out at 50 µM. Consider `CC(C)C[C@@H]1NC(=O)[C@H](CC(N)=O)NC(=O)CNC(=O)[C@H](CC(N)=O)NC(=O)[C@H]([C@@H](C)O)NC(=O)[C@H](Cc2ccc(O)cc2)NC(=O)[C@H]([C@@H](C)O)NC(=O)[C@@H](NC(=O)[C@@H](N)CC(=O)O)CSSC[C@@H](C(=O)N[C@H](C(N)=O)[C@@H](C)O)NC(=O)[C@H](Cc2c[nH]c3ccccc23)NC(=O)[C@H](C(C)C)NC1=O` [GFc-C35-3/15, DCTYTNGNLVWCT] (H-DCTYTNGNLVWCT-NH2; disulfide 2-12), for which the Kd under setting [1] came to 130 µM. On the same count and under the same terms, next, `CC(C)C[C@@H]1NC(=O)[C@H](CCC(=O)O)NC(=O)CNC(=O)[C@H](CCCNC(=N)N)NC(=O)[C@H](Cc2c[nH]cn2)NC(=O)[C@H](Cc2ccc(O)cc2)NC(=O)[C@H](C)NC(=O)[C@@H](NC(=O)[C@H](CC(=O)O)NC(=O)[C@@H]2CCCN2C(=O)CN)CSSC[C@@H](C(=O)N[C@H](C(=O)N[C@@H](Cc2ccccc2)C(=O)N[C@@H](Cc2c[nH]cn2)C(N)=O)[C@@H](C)O)NC(=O)[C@H](Cc2c[nH]c3ccccc23)NC(=O)[C@H](C(C)C)NC1=O` [Peptide C35A, GPDCAYHRGELVWCTFH] (H-GPDCAYHRGELVWCTFH-NH2; disulfide 4-14): 0.009 µM. With `CC(C)C[C@@H]1NC(=O)[C@H](CCC(=O)O)NC(=O)CNC(=O)[C@H](CCCNC(=N)N)NC(=O)[C@H](Cc2c[nH]cn2)NC(=O)[C@H](Cc2ccc(O)cc2)NC(=O)[C@H](C)NC(=O)[C@@H](NC(=O)[C@@H](N)CCCNC(=N)N)CSSC[C@@H](C(=O)N[C@@H](CO)C(N)=O)NC(=O)[C@H](Cc2c[nH]c3ccccc23)NC(=O)[C@H](C(C)C)NC1=O` [RCAYHRGELVWCS] (H-RCAYHRGELVWCS-NH2; disulfide 2-12), the Kd (SPR sensorgram analysis, human IgG, read-out: affinity (Kd value)) was found to be 0.147 µM.
